Test in all cases: NCI-60 cell line screen, 48 h
The test system of assay [1] is HOP-62 NSCLC.
The subject of assay [2] is OVCAR-5 ovarian.
Assay [3] concerns SR leukemia.
Assay [4] relates to OVCAR-3 ovarian.
Assay [5] relates to OVCAR-8 ovarian.
Assay [6] concerns DU-145 prostate.
In assay [7] the test system is T-47D breast.
In assay [8] the test system is NCI-H226 lung.
Assay [9] has as its system SF-295 CNS.
The test system of assay [10] is MDA-MB-231 breast.
Assay [11] has as its system RXF 393 renal.

Each structure is given as a SMILES string.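 1) Cells in 96-well plates. 2) Compound, 48 h, 5 concentrations. 3) Linear interpolation between surrounding doses. 4) Unreached endpoint = highest concentration. GI50 marks 50% less growth. TGI is the concentration that stops growth completely.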

As for `O=C1Oc2ccccc2C1C/C(=N\Nc1ccccc1)c1ccccc1O` (stereo unspecified), the TGI was greater than 100 µM in assay [1]; greater than 100 µM in assay [2]; 58.1 µM in assay [3]; greater than 100 µM in [4]; greater than 100 µM in [5]; greater than 100 µM in assay [6]. For the same compound, the TGI was 81.8 µM in assay [7]; greater than 100 µM in assay [8]; greater than 100 µM in assay [9]; greater than 100 µM in assay [10]; greater than 100 µM in assay [11].

On to `COC(=O)C(CC(C)C)NC(=O)C(NC(=O)c1ccc(-c2ccc(Cl)cc2Cl)o1)C(C)C` (stereo unspecified), for which the TGI is 65.4 µM in [1]; greater than 100 µM in [2]; greater than 100 µM in [3]; 42.2 µM in assay [4]; greater than 100 µM in assay [5]; 74.4 µM in [6]. The TGI in assay [7] was greater than 100 µM; in [8], greater than 100 µM; in assay [9] it was 52.6 µM; in assay [10] it was 35.3 µM; in [11], 47.2 µM.

Consider `CC(CSC(=N)N)C(N)=O` (stereo unspecified), for which the TGI in assay [1], in assay [2], in [3], in [4], in [5] and in [6] was greater than 100 µM throughout. Also, the TGI in assay [7], in assay [8], in [9], in [10] and in assay [11] was greater than 100 µM in each case.

As to `NS(=O)(=O)c1ccc(NC(=O)N/N=C/c2ccccc2O)cc1`, the TGI in assay [1], in assay [2], in assay [3], in [4], in [5] and in [6] was greater than 100 µM in each case. Moreover, the TGI in assay [7], in assay [8], in assay [9], in assay [10] and in assay [11] was greater than 100 µM in each case.

With `COC1(CC[C@@H](C)COC2OC(CO)C(O)C(O)C2O)O[C@H]2C[C@H]3[C@@H]4CC=C5C[C@@H](OC6OC(CO)C(OC7OC(C)C(O)C(O)C7O)C(O)C6OC6OC(C)C(O)C(O)C6O)CC[C@]5(C)[C@H]4CC[C@]3(C)[C@H]2[C@@H]1C` (stereo partly specified), the TGI was determined as 4.04 µM in [1]; 10.5 µM in assay [2]; 6.64 µM in assay [4]; 8.47 µM in [5]; 4.17 µM in [6]; 10.9 µM in [7]. Also, the TGI in assay [8] turned out to be 15.3 µM; in [9], 5.22 µM; in assay [10] it was 6.66 µM; in assay [11], 5.45 µM. Also, the GI50 was 1.91 µM in [2]; 2.96 µM in assay [3]; 2.04 µM in [4]; 2.39 µM in assay [5]; 1.92 µM in assay [6]; 4.08 µM in assay [7]. Besides, the GI50 in assay [9] is 2.02 µM; in [11] it was 1.92 µM.

Take `FC(F)(F)c1ccc(C2ON=C(c3ccccc3)N2C23CC4CC(CC(C4)C2)C3)cc1` (stereo unspecified): the TGI in [1], in assay [2], in assay [3], in [4], in [5] and in assay [6] was greater than 10 µM each time. In addition, the TGI in assay [7], in assay [8], in assay [9], in [10] and in assay [11] was greater than 10 µM throughout.

Regarding `O=C(O)c1nc2ccccc2nc1Nc1ccc(Cl)c(Cl)c1`, the TGI in assay [1] was 58 µM; in assay [2], greater than 100 µM; in assay [3] it was greater than 100 µM; in [4], 37.2 µM; in assay [5], greater than 100 µM; in [6] it was greater than 100 µM. Also, the TGI was 72.1 µM in [7]; greater than 100 µM in assay [8]; 69.8 µM in assay [9]; 90 µM in assay [10]; 69.3 µM in assay [11].

In the case of `COc1ccc(C(O)/C(=N/N)c2nc3ccc(Cl)cc3[nH]c2=O)cc1` (stereo unspecified), the TGI in assay [1], in assay [2], in assay [3], in [4], in [5] and in assay [6] was greater than 100 µM in each case. For the same compound, the TGI in assay [7], in assay [8], in assay [9], in [10] and in [11] was greater than 100 µM in each case.

In the case of `O=C1N/C(=N\N=C\c2ccccc2)C(c2ccccc2)O1` (stereo unspecified), the TGI in [1], in assay [2], in assay [3], in [4], in [5] and in [6] was greater than 100 µM throughout. Also, the TGI in assay [7], in assay [8], in [9], in [10] and in assay [11] was greater than 100 µM throughout.

Consider `CSc1ncnc2c1cnn2Cc1cn(COCCO)nn1`, for which the TGI is greater than 100 µM in assay [1]; greater than 100 µM in [2]; greater than 100 µM in assay [3]; 59.1 µM in [4]; greater than 100 µM in assay [6]; greater than 100 µM in assay [7]. Further, the TGI in assay [8], in assay [10] and in assay [11] was greater than 100 µM each time.

With `C[C@]12C=CC(=O)C=C1CC[C@@H]1[C@@H]2CC[C@@]2(C)[C@H]1CC[C@]2(O)C(N)=O`, the TGI in assay [1], in [2], in [3], in assay [4], in [5] and in [6] was greater than 100 µM throughout. Also, the TGI in assay [7], in assay [8], in [9], in [10] and in assay [11] was greater than 100 µM throughout.

With `CO/C(N)=C(\C#N)N=Cc1ccc2ccccc2c1`, the TGI in assay [1], in [3], in assay [4], in assay [5], in [6] and in assay [7] was greater than 100 µM in each case. The TGI in assay [8], in assay [9], in [10] and in [11] was greater than 100 µM each time.

The record behind these values is PubChem BioAssay (NCI).
